Measured values reported in patent US6524625B2, “Physiologically active extract obtained from indigo plant polygonum tinctorium” (Kabushiki Kaisha Hayashibara Seibutsu Kagaku Kenkyuto, priority 1998, dated 2003).

Experiments:
HGC-27 cells = experiment: Apoptosis controlling action, propidium iodide flow cytometry; type: cell-based, human; conditions: HGC-27 cells (1 × 10^5 cells/ml)
Protocol: (§1) The solution was distributed to a microplate in one milliliter per well, and the solution in each well was diluted in series with a fresh preparation of the same medium as used in the above.
(§2) HL-60 cells, ATCC CCL-240, derived from a patient with acute promyelocytic leukemia; U-937 cells, ATCC CRL-1593.2, derived from a patient with human histiocytic lymphoma; HGC-27 cells, RCB0500, derived from a patient with gastric cancer; HLC-1 cells, RCB0083, derived from a patient with lung adenocarcinoma; and C6 cells, ATCC CCL-107, derived from rat glial tumor, were respectively suspended in RPMI1640 medium (pH 7.2) to give a cell density of 1×10^6 cells/ml or 2×10^5 cells/ml. To the microplate, containing a one milliliter dilution of 20, 10 or 5.0 μg/ml of Compound 1, was added one milliliter per well of either of the above cell suspensions and used for test systems. All the test systems were made duplex and respectively subjected to 24- and 48-hour incubations in a 5 v/v % CO2 incubator at 37° C. A system free of Compound 1 was provided and treated similarly as above and used for control.
(§3) According to the method by I. Nicoletti et al. in Journal of Immunological Methods, Vol. 139, pp. 271-279 (1991), the apoptosis-induced cells in the test systems and control were stained by propidium iodide and determined for the percentage of the stained cells to the total cells in such a manner that transferring each of the cultures to polypropylene tubes, centrifuging the tubes, removing the resulting supernatants, washing the cells' sediments with phosphate buffered saline containing 0.3 v/v % calf serum albumin, and further centrifuging the washed cells to remove supernatants. The newly formed sediments were respectively mixed with 50 μg/ml of propidium iodide commercialized by Sigma Chemical Company, St. Louis, Mo., USA, 0.1 w/v % sodium citrate, and0.1 w/v % “TRITON X-100”, a surfactant commercialized by Sigma Chemical Company, St. Louis, Mo., USA, in respective volumes of 1.5 ml to stain the cells by propidium iodide. The stained cells were stored at 4° C. in the dark overnight. The stained cells of each test system were analyzed on “EPICS PROFILE II”, a flow cytometry commercialized by Beckman Coulter, Inc., CA, USA. Based on the data the percentage of the stained cells to the total cells in each test system was measured for apoptosis occurrence.

HLC-1 cells = experiment: as above; type: cell-based, human; conditions: HLC-1 cells (1 × 10^5 cells/ml)
Protocol: as §1, §2, §3

U-937 cells = experiment: as above; type: cell-based, human; conditions: U-937 cells (5 × 10^5 cells/ml)
Protocol: as §1, §2, §3

HL-60 cells = experiment: as above; type: cell-based, human; conditions: HL-60 cells (5 × 10^5 cells/ml)
Protocol: as §1, §2, §3

[1] = Water-solubility (dissolving in refined water for the NBT test); type: physicochemical; conditions: NBT evaluation impossible
Protocol: Then the formed formazan was quantified on spectro-chemical analysis. Either of the present physiologically active extracts was dissolved in a refined water to give an appropriate concentration, and the solutions were used for test samples. As a control it was provided by replacing the test samples with a refined water. The 50% inhibitory activity for the formation of formazan in the control was defined as a one unit activity of radical-entrapping action. Based of the definition, the radical-entrapping activity of one gram of each test sample was determined.
Particularly, the radical-entrapping action of the physiologically active substance of Experiment 1 and Compounds 5 and 6 of Experiment 2 was remarkable.

[2] = 48 hours, 2.5 μg/ml, control 1.5
[3] = 48 hours, 5.0 μg/ml, control 1.5
[4] = 48 hours, 10 μg/ml, control 1.5

In the case of `O=C1c2ccccc2-n2c1nc1ccccc1c2=O` [Compound 1, 6,12-dihydro-6,12-dioxoindolo[2,1-b]quinazoline], the Apoptosis occurrence (HGC-27 cells; 24 hours, 2.5 μg/ml, control 1.5) is reported as 1.9%, the Apoptosis occurrence (HGC-27 cells; 24 hours, 5.0 μg/ml, control 1.5) is reported as 1.7% and the Apoptosis occurrence (HGC-27 cells; 24 hours, 10 μg/ml, control 1.5) is reported as 3.5%. The Apoptosis occurrence (HGC-27 cells; 48 hours, 2.5 μg/ml, control 1.4) was 2.2%, the Apoptosis occurrence (HGC-27 cells; 48 hours, 5.0 μg/ml, control 1.4) was 4.1% and the Apoptosis occurrence (HGC-27 cells; 48 hours, 10 μg/ml, control 1.4) was 14.1%. It also gave an Apoptosis occurrence (HLC-1 cells; 24 hours, 2.5 μg/ml, control 2.7) of 3.7%, an Apoptosis occurrence (HLC-1 cells; 24 hours, 5.0 μg/ml, control 2.7) of 4.2% and an Apoptosis occurrence (HLC-1 cells; 24 hours, 10 μg/ml, control 2.7) of 8.1%. The Apoptosis occurrence (HLC-1 cells; [2]) was 5.8%, the Apoptosis occurrence (HLC-1 cells; [3]) was 7.3% and the Apoptosis occurrence (HLC-1 cells; [4]) was 21.8%. For the same compound, the Apoptosis occurrence (U-937 cells; 24 hours, 2.5 μg/ml, control 3.2) was 3.2%, the Apoptosis occurrence (U-937 cells; 24 hours, 5.0 μg/ml, control 3.2) was 5.0% and the Apoptosis occurrence (U-937 cells; 24 hours, 10 μg/ml, control 3.2) was 6.8%. It also gave an Apoptosis occurrence (U-937 cells; 48 hours, 2.5 μg/ml, control 4.5) of 5.2%, an Apoptosis occurrence (U-937 cells; 48 hours, 5.0 μg/ml, control 4.5) of 11.7% and an Apoptosis occurrence (U-937 cells; 48 hours, 10 μg/ml, control 4.5) of 66.9%. For the same compound, the Apoptosis occurrence (HL-60 cells; 24 hours, 2.5 μg/ml, control 0.7) was 0.7%, the Apoptosis occurrence (HL-60 cells; 24 hours, 5.0 μg/ml, control 0.7) was 1.7% and the Apoptosis occurrence (HL-60 cells; 24 hours, 10 μg/ml, control 0.7) was 11.8%. For the same compound, the Apoptosis occurrence (HL-60 cells; [2]) was 1.3%, the Apoptosis occurrence (HL-60 cells; [3]) was 4.2% and the Apoptosis occurrence (HL-60 cells; [4]) was 22.6%. For the same compound, the Water-solubility [1] was “insufficient water-solubility”.
